# Patent publication US4621089A, “Pyrazolopyridine derivatives and their use in treating inflammation and allergic conditions” (Beecham Group p.l.c., priority 1984, dated 1986)
# Experiments:
# [1] = tested on: mouse sensitised to oxazolone; assay: Mouse Oxazolone Screen (topical anti-inflammatory activity); assay type: in vivo; settings: 500 μg/ear topical, ear weights 24 h after oxazolone challenge
# Procedure: Compounds were tested for topical anti-inflammatory activity in a screen using the mouse sensitised to oxazolone, by a method modified from that of Dietrich and Hess [Dietrich, F. M., and Hess, R., Int. Arch. Allergy, (1970), 38, 246-259].
# Mice were sensitised with oxazolone (2 mg in 20 μl ethanol) on a shaved area of the abdomen. Five days later, the animals recieved 10 μl THF/MeOH (1:1 v/v) on the right ear, and the test compound in the same solvent on the left ear. One hour later, the animals were challenged with 100 μg oxazolone in 10 μl acetone on each ear. Ear weights were measured 24 h later. Percentage inhibition of the inflammatory swelling refers to the increase in weight of left ears (oxazolone plus compound) compared with solvent-treated negative controls, as a proportion of the increase in weight of right ears (oxazolone alone) over similar controls.
# cantharidin mouse ear = assay: Mouse Cantharidin Screen (topical anti-inflammatory activity, mouse ear); assay type: in vivo; settings: ears weighed 24 h after cantharidin
# Procedure: Compounds were tested for topical anti-inflammatory activity in a cantharidin mouse ear screen, modified from Swinge et al [Swingle, K. F., Reiter, M. J. and Schwartzmiller, D. H., Arch. Int. Pharmacodyn., (1981), 254, 168-176].
# 25 μg cantharidin (in 10 μl THF/MeOH) was applied to both ears. Compound, in the same solvent, was applied at the same time, to the left ear only. Ears were weight 24 h after cantharidin application. Percentage inhibition of the acute inflammatory swelling refers to the increase in weight of left ears (cantharidin plug compound) compared with solvent-treated negative controls, as a proportion of the increase in weight of right ears (cantharidin alone) over similar controls.
# [2] = tested on: 5-Lipoxygenase enzyme from RBL-1 cells; assay: RBL-1 5-Lipoxygenase Screen; assay type: biochemical; settings: 20 μM compound, 10,000 g supernatant, 6.3 μm arachidonic acid, 29° C.
# Procedure: 5-Lipoxygenase enzyme was prepared as a 10,000 g supernatant from RBL-1 cells by the method of Jakschik [Jakschik, B. A., Sun. F. F., Lee, L. M. and Steinhoff, M. M., 1980, Biochem. Biophys. Res. Comm. 95, 103]. The 10,000 g supernatant was diluted with homogenization buffer to the equivalent of 1.5-2.5×10^7 cells ml^-1 and made 2 mM with respect to CaCl2. Aliquots of 0.5 ml were then dispensed into tubes, and incubated at 29° C. with 5 γl ethanol or compound in ethanol at the desired concentration for 2 min. Then [1-^14 C] arachidonic acid was added in buffer to give a final concentration of 6.3 μm and 0.2 μCi per incubation, and the reaction continued at 29° C. for 2 min. The reaction was terminated by adding 1 ml of acetone and cooling on ice, 0.5 ml of ice-cold saline and 10 μl of 2N formic acid were added, and the mixture was extracted with 2×2 ml of chloroform. The extract was stored under N2 at -20° C. until analysis by chromatography. Activity was measured as the percentage of total radioactivity found in 5-HETE and 5,12-diHETE, and inhibition calculated as the decrease in formation of the sum of these two species in compound-treated incubates relative to control incubates.
# mice = settings: J. Heterocycl. Chem. 1971, 8(6), 1035-7; cited from earlier work
smiles,measurement,setting,value
"CCOC(=O)c1cnc2cn[nH]c2c1Nc1ccccc1 [Example 1, Ethyl 7-anilino-1H-pyrazolo[4,3-b]pyridine-6-carboxylate]",inhibition of the inflammatory swelling,[1],24%
"C=CCNc1c(C(=O)OCC)cnc2cn[nH]c12 [Example 2, Ethyl 7-Allylamino-1H-pyrazolo[4,3-b]-pyridine-6-carboxylate]",inhibition of the acute inflammatory swelling,cantharidin mouse ear; 500 μg/ear topical,20%
"CCCCNc1c(C(=O)OCC)cnc2cn[nH]c12 [Example 6, Ethyl 7-n-Butylamino-1H-pyrazolo[4,3-b]pyridine-6-carbosylate]",inhibition of the acute inflammatory swelling,cantharidin mouse ear; 200 μg/ear topical,42%
same,"inhibition of formation of 5-HETE and 5,12-diHETE",[2],78%
CC(=O)N(C(C)=O)c1cc(C)nc2c(C)n[nH]c12 [compound wherein R is NAc2],CNS antidepressant activity,mice,CNS antidepressant activity
